Measured values published in patent US20260274853A1, “BIFUNCTIONAL COMPOUNDS CONTAINING PYRIMIDINE DERIVATIVES FOR DEGRADING CYCLIN-DEPENDENT KINASE 2 VIA UBIQUITIN PROTEASOME PATHWAY” (NIKANG THERAPEUTICS, INC., priority 2022, published 2026).

Tests used:
[1] = molecular target: T1, CDK2 (Homo sapiens, UniProt P24941); experiment: Inhibition of CDK2: phospho-Rb (S807/811) HTRF measurement in OVCAR3 cells; assay type: cell-based; settings: 24 h compound treatment, read-out: pRb (nM), IC50 in pRB(S807/811) assay
T1 construct: High-Throughput Measurement of Cellular Endogenous CDK2; endogenous in cells; host or cells: OVCAR3
Procedure: Phosphorylation of RB protein at S807/811 were measured using HTRF phospho-RB cellular kits (Cat #64RBS807PEG) from Cisbio.
On Day 1, OVCAR3 (dependent on CDK2) cells were seeded into 96-well tissue-culture treated plates at 20,000 cells/well in 200 μL and incubated overnight at 37° C. in CO2 atmosphere. On Day 2, the cells were treated with test compounds at concentrations from 0.3 to 10,000 nM using HP D300 digital dispenser. Twenty-four hours after compound treatment, cell culture media was removed by flicking the plate and tapping the plate against clean paper towel. Immediately 30 μL 1× lysis buffer was supplemented from the kit and the plate was incubated at room temperature on shaker for 30 min. After homogenization by pipetting up and down, 8 μL cell lysate from 96-well cell culture plate was transferred to 384-well small volume white detection plate. 2 μL premixed detection solution was added and the plate was covered with sealer. To prepare the detection solution, d2 conjugated-phospho-RB antibody and Eu-cryptate conjugated phosphor-RB antibody were diluted into detection buffer following manufacturer's instruction. Detection plates were incubated for 4 h at room temperature and read on ClarioStar (BMG Labtech) in TR-FRET mode (665 nM and 620 nM). The TR-FRET ratio (665 nM/620 nM) was plotted against the compound concentration and normalized to DMSO controls. Half maximal inhibition concentration (IC50) values are calculated with a four-parameter logistic fit using GraphPad Prism (version 8; La Jolla, CA).
In the table below, A indicates a IC50 of less than 0.1 μM; B indicates a IC50 of greater than or equal to 0.1 μM but less than 0.5 μM; C indicates a IC50 of greater than or equal to 0.5 μM but less than 1 μM; and D indicates a […] of greater than or equal to 1 μM but less than 10 μM.

[2] = molecular target: T1, CDK2; experiment: CDK2 HTRF assay: cellular endogenous CDK2 level in OVCAR3 cells; assay type: cell-based; settings: 24 hours compound treatment, read-out: DC50 (half maximal degradation concentration of CDK2)
Procedure: Effects of compounds on cellular CDK2 level can be monitored by a high-throughput HTRF assay or traditional Western Blot assay.
To determine half maximal degradation concentration (DC50) values of compounds, cellular CDK2 level was measured in 96-well format using HTRF total CDK2 cellular kit (Cat #64CDK2TPEG) from Cisbio.
On Day 1, OVCAR3 cells were seeded into 96-well tissue-culture treated plates at 20,000 cells/well in 200 μL and incubated overnight at 37° C. in CO2 atmosphere. On Day 2 cells were treated with compounds at concentration ranging from 0.3 to 10,000 nM using HP D300 digital dispenser. 24 hours after compound treatment, cell culture media was removed by flicking the plate and tapping the plate against clean paper towel. Immediately 30 μL 1× lysis buffer was supplemented from the kit and the plate was incubated at room temperature on shaker for 30 min. After homogenization by pipetting up and down, 8 μL cell lysate from 96-well cell culture plate was transferred to 384-well small volume white detection plate. 2 μL premixed detection solution was added and the plate was covered with sealer. To prepare the detection solution, d2 conjugated-CDK2 antibody and Eu-cryptate conjugated CDK2 antibody were diluted into detection buffer following manufacturer's instruction. Detection plates were incubated overnight at room temperature and read on ClarioStar (BMG Labtech) in TR-FRET mode (665 nM and 620 nM). The TR-FRET ratio (665 nM/620 nM) was plotted against the compound concentration and normalized to DMSO controls. Half maximal degradation concentration (DC50) values were calculated with a four-parameter logistic fit using GraphPad Prism (version 8; La Jolla, CA).
In the table below, A indicates a DC50 of less than 0.1 μM; B indicates a DC50 of greater than or equal to 0.1 μM but less than 0.5 μM; C indicates a DC50 of greater than or equal to 0.5 μM but less than 1 μM; and D indicates a DC50 of greater than or equal to 1 μM but less than 10 μM.

IC50 [1] [nM]	DC50 [2] [nM]	SMILES
100 to 500	< 100	Cn1c(S(=O)(=O)N2CCC(Nc3ncc(C(F)(F)F)c(-c4cnn(CC(F)(F)F)c4)n3)CC2)cnc1CN1CCN(c2ccc(N3CCC(=O)NC3=O)cc2)CC1 [Example 26, 1-(4-(4-((1-methyl-5-((4-((4-(1-(2,2,2-trifluoroethyl)-1H-pyrazol-4-yl)-5-(trifluoromethyl)pyrimidin-2-yl)amino)-piperidin-1-yl)sulfonyl)-1H-imidazol-2-yl)methyl)piperazin-1-yl)phenyl)dihydro-pyrimidine-2,4(1H,3H)-dione]
100 to 500	100 to 500	O=C1CCC(c2ccc(N3CCN(Cc4cccc(S(=O)(=O)N5CCC(Nc6ncc(C(F)(F)F)c(-c7cnn(CC(F)(F)F)c7)n6)CC5)c4)CC3)c(C(F)(F)F)c2)C(=O)N1 (centres unmarked) [Example 23, 3-(4-(4-(3-((4-((4-(1-(2,2,2-trifluoro-ethyl)-1H-pyrazol-4-yl)-5-(trifluoro-methyl)pyrimidin-2-yl)amino)-piperidin-1-yl)sulfonyl)benzyl)-piperazin-1-yl)-3-(trifluoromethyl)-phenyl)piperidine-2,6-dione]
< 100	< 100	CN1CCC(n2cc(-c3nc(NC4CCN(S(=O)(=O)c5cccc(CN6CCC(c7ccc8c(N9CCC(=O)NC9=O)nn(C)c8c7)CC6)c5)CC4)ncc3C(F)(F)F)cn2)CC1 [Example 79, 1-(1-methyl-6-(1-(3-((4-((4-(1-(1-methylpiperidin-4-yl)-1H-pyrazol-4-yl)-5-(trifluoromethyl)pyrimidin-2-yl)-amino)piperidin-1-yl)sulfonyl)-benzyl)-piperidin-4-yl)-1H-indazol-3-yl)dihydro-pyrimidine-2,4(1H,3H)-dione]
100 to 500	< 100	C[C@@H]1CN(S(=O)(=O)c2cccc(CN3CCC(c4ccc5c(N6CCC(=O)NC6=O)nn(C)c5c4)CC3)c2)CC[C@@H]1Nc1ncc(C(F)(F)F)c(-c2cnn(CC(F)(F)F)c2)n1 [Example 34, 1-(1-methyl-6-(1-(3-(((3R,4S)-3-methyl-4-((4-(1-(2,2,2-trifluoroethyl)-1H-pyrazol-4-yl)-5-(trifluoromethyl)-pyrimidin-2-yl)amino)piperidin-1-yl)-sulfonyl)benzyl)piperidin-4-yl)-1H-indazol-3-yl)dihydropyrimidine-2,4(1H,3H)-dione]
< 100	100 to 500	Cn1cc(-c2nc(NC3CCN(S(=O)(=O)c4cccc(CN5CCN(c6cc7c(cc6F)C(=O)N(C6CCC(=O)NC6=O)C7=O)CC5)c4)CC3)ncc2C(F)(F)F)cn1 (centres unmarked) [Example 5, 2-(2,6-dioxopiperidin-3-yl)-5-fluoro-6-(4-(3-((4-((4-(1-methyl-1H-pyrazol-4-yl)-5-(trifluoromethyl)pyrimidin-2-yl)-amino)piperidin-1-yl)sulfonyl)-benzyl)-piperazin-1-yl)isoindoline-1,3-dione]
< 100	< 100	Cn1nc(N2CCC(=O)NC2=O)c2ccc(N3CCC(CN4CCC(S(=O)(=O)N5CCC(Nc6ncc(C(F)(F)F)c(-c7cnn(CC(F)(F)F)c7)n6)CC5)CC4)CC3)cc21 [Example 92, 1-(1-methyl-6-(4-((4-((4-((4-(1-(2,2,2-trifluoroethyl)-1H-pyrazol-4-yl)-5-(trifluoromethyl)pyrimidin-2-yl)amino)-piperidin-1-yl)sulfonyl)-piperidin-1-yl)methyl)piperidin-1-yl)-1H-indazol-3-yl)dihydropyrimidine-2,4(1H,3H)-dione]
< 100	< 100	O=C1CCC(c2ccc(N3CCN(Cc4cccc(S(=O)(=O)N5CCC(Nc6ncc(C(F)(F)F)c(-c7cnn(CC(F)(F)F)c7)n6)[C@H](F)C5)c4)CC3)cc2)C(=O)N1 (mixture of isomers) [Example 19, Rac-3-(4-(4-(3-(((3R,4S)-3-fluoro-4-((4-(1-(2,2,2-trifluoroethyl)-1H-pyrazol-4-yl)-5-(trifluoromethyl)pyrimidin-2-yl)-amino)piperidin-1-yl)sulfonyl)benzyl)-piperazin-1-yl)-phenyl)piperidine-2,6-dione]
100 to 500	< 100	O=C1CCC(NS(=O)(=O)N2CCC(Nc3ncc(C(F)(F)F)c(-c4cnn(CC(F)(F)F)c4)n3)CC2)C(=O)N1 (centres unmarked) [Example 83, N-(2,6-dioxopiperidin-3-yl)-4-((4-(1-(2,2,2-trifluoroethyl)-1H-pyrazol-4-yl)-5-(trifluoromethyl)pyrimidin-2-yl)-amino)piperidine-1-sulfonamide]
< 100	< 100	O=C1CCC(c2ccc(N3CC4CCC(C3)N4Cc3cccc(S(=O)(=O)N4CCC(Nc5ncc(C(F)(F)F)c(-c6cnn(CC(F)(F)F)c6)n5)CC4)c3)cc2)C(=O)N1 (centres unmarked) [Example 18, 3-(4-(8-(3-((4-((4-(1-(2,2,2-trifluoro-ethyl)-1H-pyrazol-4-yl)-5-(trifluoro-methyl)pyrimidin-2-yl)amino)-piperidin-1-yl)sulfonyl)benzyl)-3,8-diazabicyclo-[3.2.1]octan-3-yl)phenyl)-piperidine-2,6-dione]
< 100	< 100	O=C1CCN(c2ccc(N3CCN(Cc4cccc(S(=O)(=O)N5CCC(Nc6ncc(C(F)(F)F)c(-c7cnn(CC(F)(F)F)c7)n6)CC5)c4)CC3)c(F)c2)C(=O)N1 [Example 13, 1-(3-fluoro-4-(4-(3-((4-((4-(1-(2,2,2-trifluoroethyl)-1H-pyrazol-4-yl)-5-(trifluoromethyl)pyrimidin-2-yl)amino)-piperidin-1-yl)sulfonyl)benzyl)-piperazin-1-yl)phenyl)dihydro-pyrimidine-2,4(1H,3H)-dione]
< 100	< 100	Cn1nc(N2CCC(=O)NC2=O)c2ccc(C3CCN(CC(C)(C)c4cccc(S(=O)(=O)N5CCC(Nc6ncc(C(F)(F)F)c(-c7cnn(CC(F)(F)F)c7)n6)CC5)c4)CC3)cc21 [Example 90, 1-(1-methyl-6-(1-(2-methyl-2-(3-((4-((4-(1-(2,2,2-trifluoroethyl)-1H-pyrazol-4-yl)-5-(trifluoromethyl)-pyrimidin-2-yl)-amino)piperidin-1-yl)sulfonyl)phenyl)-propyl)piperidin-4-yl)-1H-indazol-3-yl)-dihydro-pyrimidine-2,4(1H,3H)-dione]
< 100	< 100	Cn1nc(N2CCC(=O)NC2=O)c2ccc(C3CCN(CC4CCN(S(=O)(=O)N5CCC(Nc6ncc(C(F)(F)F)c(-c7cnn(CC(F)(F)F)c7)n6)CC5)C4)CC3)cc21 (centres unmarked) [Example 88, 1-(1-methyl-6-(1-((1-((4-((4-(1-(2,2,2-trifluoroethyl)-1H-pyrazol-4-yl)-5-(trifluoromethyl)pyrimidin-2-yl)amino)-piperidin-1-yl)sulfonyl)-pyrrolidin-3-yl)methyl)piperidin-4-yl)-1H-indazol-3-yl)dihydropyrimidine-2,4(1H,3H)-dione]
< 100	< 100	Cn1c(=O)n(C2CCC(=O)NC2=O)c2cccc(C3CCN(Cc4cccc(S(=O)(=O)N5CCC(Nc6ncc(C(F)(F)F)c(-c7cnn(CC(F)(F)F)c7)n6)CC5)c4)CC3)c21 (centres unmarked) [Example 8, 3-(3-methyl-2-oxo-4-(1-(3-((4-((4-(1-(2,2,2-trifluoroethyl)-1H-pyrazol-4-yl)-5-(trifluoromethyl)pyrimidin-2-yl)amino)-piperidin-1-yl)sulfonyl)-benzyl)-piperidin-4-yl)-2,3-dihydro-1H-benzo[d]-imidazol-1-yl)piperidine-2,6-dione]
